Values joined by “and” are separate entries in the source; they are usually repeats but may differ in a detail not shown here. Equal entries are not always repeated. Blank lines part the entries; values can stand above or below the molecule they belong to.
System: 598228-144-R-J1-PDC complex spheroids, viability
Assay: Anticancer human tumor 598228-144-R-J1-PDC patient-derived serous endometrial adenocarcinoma cell line growth inhibition [CLK]
Conditions: for viability, T/C: stronger effect = lower value
Text: A high-throughput screen of multi-cell type tumor spheroids was designed to identify active combinations of […] and targeted small molecules. Complex spheroids include a stromal component modeled by human endothelial cells (HUVEC) and fibroblasts modeled by human mesenchymal stem cells (MSCs). The concentration ranges selected for each drug and investigational agent were based upon clinically achievable concentrations if the clinical Cmax of the agent was known.
Compounds. The drugs and investigational agents: cirtuvivint (SM08502; NSC835563), CC-671 (NSC850746), vemurafenib (NSC761431), tapotoclax (NSC804041), sotorasib (NSC818433), adagrasib (NSC831453), MRTX-1133 (NSC836407), BAY2416964 (NSC825713), copanlisib (NSC816437), inavolisib (NSC800729), abemaciclib (NSC768073), osimertinib (NSC779217), entinostat (NSC756642), eltanexor (KPT-8602, NSC794443), venetoclax (NSC766270), ceralasertib (NSC777638), bortezomib (NSC756655), olaparib (NSC753686), talazoparib (NSC767125), alisertib (NSC759677), peposertib (NSC802822), gemcitabine (NSC613327), 5-fluorouracil (NSC19893), SN-38 (NSC673596), oxaliplatin (NSC266046), paclitaxel (NSC125973), and doxorubicin (NSC123127), were obtained from the National Cancer Institute (NCI) Developmental Therapeutics Program Chemical Repository. The FDA-approved anticancer drug set is available from the Developmental Therapeutics Program at https://dtp.cancer.gov/organization/dscb/obtaining/available plates.htm. […] The stock solutions were prepared in dimethyl sulfoxide (DMSO, Sigma-Aldrich, St. Louis, MO, cat. D2650), except for the platinum complexes which were prepared in saline (Quality Biological, Gaithersburg, MD, cat. 114-055-101), at 800-fold the tested concentration and stored at -70 degrees C prior to their use. All drugs and investigational agents were tested over a range starting from a high concentration at or near the clinical Cmax and decreasing in half-log increments. If the clinical Cmax for an agent had not been determined, the highest concentration tested was 10 microM.
Cell Culture. All cells were maintained in an incubator at 37 degrees C and 5% CO2 with 95% humidity. The PDC lines were cultured according to standard operating procedures established by the NCI PDMR. Briefly, all PDCs were thawed and cultured in Matrigel-coated flasks prepared with a working solution of 1X Ham's F-12 nutrient mix, without supplementation (Invitrogen, Waltham, MA, cat. 11765054), 100 U/mL penicillin-streptomycin (Invitrogen, cat. 15140122), and 2.5% Matrigel (Corning Inc., Corning, NY, cat. 354248) for the first three passages. The 947758-054-R-J2-PDC line was cultured in 6B/Colon 1A media, which includes advanced DMEM/F-12 (Thermo Fisher Scientific, cat. 12634028), 10 mM HEPES (Thermo Fisher Scientific, cat. 15630080), 1X GlutaMAX supplement (Thermo Fisher Scientific, cat. 35050061), 0.1 mg/mL primocin (InvivoGen, cat. ant-pm-2), 10% defined fetal bovine serum, heat inactivated (HyClone Laboratories Inc., cat. SH30070.03HI), 1.25 mM N-Acetyl-L-cysteine (Sigma-Aldrich, cat. A9165), 10 mM nicotinamide (Sigma-Aldrich, cat. N0636), 1X B-27 supplement (Thermo Fisher Scientific, cat. 17504044), 1X N-2 supplement (Thermo Fisher Scientific, cat. 17502048), and 10 microM Y-27632 dihydrochloride (Tocris Bioscience, cat. 1254). The 876862-298-R-J1-PDC was cultured in 6E media, which includes all 6B/Colon 1A media components plus 50% L-WRN conditioned media (ATCC, cat. CRL-3276), 50 ng/mL recombinant human EGF recombinant protein (hEGF; Thermo Fisher Scientific, cat. PHG0311), 10 ng/mL recombinant human fibroblast growth factor 10 (hGFG-10; PeproTech, cat. 100-26), 1 ng/mL recombinant human fibroblast growth factor 2 (hFGF-2; PeproTech, cat. 100-18B), and 1 µM prostaglandin E2 (PGE2; Tocris, cat. 2296). The 227483-062-R1-J1-PDC line was cultured in Panc media, containing all 6E components except hFGF-2, with the addition of 500 nM SB-431542 (Selleckchem, cat. S1067) and 10 nM gastrin (Tocris, cat. 3006). […]
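Further: spheroids exposed to compounds for seven days before readout.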
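Wherever viability, T/C is given: 100% = DMSO vehicle control wells.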

IC50 (curve of compound): > 10 µM and 8.39 µM
Structure (SMILES): CCCS(=O)(=O)Nc1ccc(F)c(C(=O)c2c[nH]c3ncc(-c4ccc(Cl)cc4)cc23)c1F
viability, T/C (compound 0.0316 µM): 95.3% and 98.7%
viability, T/C (compound 0.1 µM): 119% and 92.2%
viability, T/C (compound 0.316 µM): 92.5% and 90.5%
viability, T/C (compound 1 µM): 106% and 90.1%
viability, T/C (compound 3.16 µM): 89.6% and 81.8%
viability, T/C (compound 10 µM): 55.9% and 44.1%

Structure (SMILES): COC1C=CCC(C)C(C)S(=O)(=O)NC(=O)c2ccc3c(c2)N(CC2CCC21)CC1(CCCc2cc(Cl)ccc21)CO3 (centres undefined) + CN1CCN(c2cc(C(=O)Nc3cc4cc(-c5cnn(C)c5)ccc4cn3)ccn2)CC1
IC50 (curve of first compound, second compound 0.0316 µM): 4.71 µM
IC50 (curve of first compound, second compound 0.1 µM): 5.35 µM
IC50 (curve of first compound, second compound 0.316 µM): < 0.0316 µM
IC50 (curve of first compound, second compound 1 µM): < 0.0316 µM
IC50 (curve of first compound, second compound 3.16 µM): < 0.0316 µM
IC50 (curve of first compound, second compound 10 µM): < 0.0316 µM
viability, T/C (second compound 0.0316 µM, first compound 0.0316 µM): 128%
viability, T/C (second compound 0.0316 µM, first compound 0.1 µM): 107%
viability, T/C (second compound 0.0316 µM, first compound 0.316 µM): 85.1%
viability, T/C (second compound 0.0316 µM, first compound 1 µM): 75%
viability, T/C (second compound 0.0316 µM, first compound 3.16 µM): 69.2%
viability, T/C (second compound 0.0316 µM, first compound 10 µM): 29.5%
viability, T/C (second compound 0.1 µM, first compound 0.0316 µM): 122%
viability, T/C (second compound 0.1 µM, first compound 0.1 µM): 111%
viability, T/C (second compound 0.1 µM, first compound 0.316 µM): 86%
viability, T/C (second compound 0.1 µM, first compound 1 µM): 76.9%
viability, T/C (second compound 0.1 µM, first compound 3.16 µM): 65.5%
viability, T/C (second compound 0.1 µM, first compound 10 µM): 36.4%
viability, T/C (second compound 0.316 µM, first compound 0.0316 µM): 15.7%
viability, T/C (second compound 0.316 µM, first compound 0.1 µM): 18.8%
viability, T/C (second compound 0.316 µM, first compound 0.316 µM): 16.8%
viability, T/C (second compound 0.316 µM, first compound 1 µM): 16.6%
viability, T/C (second compound 0.316 µM, first compound 3.16 µM): 20.5%
viability, T/C (second compound 0.316 µM, first compound 10 µM): 18.9%
viability, T/C (second compound 1 µM, first compound 0.0316 µM): 1.74%
viability, T/C (second compound 1 µM, first compound 0.1 µM): 1.81%
viability, T/C (second compound 1 µM, first compound 0.316 µM): 3.02%
viability, T/C (second compound 1 µM, first compound 1 µM): 1.14%
viability, T/C (second compound 1 µM, first compound 3.16 µM): 1.71%
viability, T/C (second compound 1 µM, first compound 10 µM): 4.93%
viability, T/C (second compound 3.16 µM, first compound 0.0316 µM): 1.85%
viability, T/C (second compound 3.16 µM, first compound 0.1 µM): 3.92%
viability, T/C (second compound 3.16 µM, first compound 0.316 µM): 1.47%
viability, T/C (second compound 3.16 µM, first compound 1 µM): 1.24%
viability, T/C (second compound 3.16 µM, first compound 3.16 µM): 2.51%
viability, T/C (second compound 3.16 µM, first compound 10 µM): 3.08%
viability, T/C (second compound 10 µM, first compound 0.0316 µM): 0.94%
viability, T/C (second compound 10 µM, first compound 0.1 µM): 0.82%
viability, T/C (second compound 10 µM, first compound 0.316 µM): 0.72%
viability, T/C (second compound 10 µM, first compound 1 µM): 0.85%
viability, T/C (second compound 10 µM, first compound 3.16 µM): 2.37%
viability, T/C (second compound 10 µM, first compound 10 µM): 3.73%

Reference: PubChem BioAssay AID2060614 (Molecular Pharmacology Branch, DTP, NCI, 2025)
